In brackets after ≈: the same amount, converted by molar mass. Where a name gives a salt, the structure may show the parent alone. Read-outs that look alike come from different tables or passages of the source.
Assays:
P. Aeruginosa A5007 = test: Acute mouse protection test; format: in vivo; conditions: mice infected i.p. with P. Aeruginosa A5007, observed 7 days; for SC (ED50): SC dosing at 1 and 5 hours post-infection; for Oral (ED50): oral dosing at 1 and 5 hours post-infection
Stap. Aureus NCTC 10649 = test: Acute mouse protection test; format: in vivo; conditions: mice infected i.p. with Stap. Aureus NCTC 10649, observed 7 days; for SC (ED50): SC dosing at 1 and 5 hours post-infection; for Oral (ED50): oral dosing at 1 and 5 hours post-infection
Strep. pyogenes EES 61 = test: Second in vitro MIC test, Brain Heart Infusion Broth (BHIB); format: cell-based
E. Coli Juhl [1] = test: as above; format: cell-based
[2] = Conversion of prodrug to parent drug in whole blood at 37° C.; format: in vitro ADME, Dog
Experimental: (§1) An aqueous solution of prodrug (Z) is spiked into fresh whole blood containing sodium heparin as an anticoagulant. The sample is mixed gently by inversion and placed in a 37° waterbath. At selected time intervals an 0.5 ml aliquot of blood is removed and placed in a chilled 1.5 ml centrifuge tube (ice temperature). Samples are centrifuges at 13,000 rpm for two minutes to separate plasma. An 0.2 ml aliquot of the plasma sample is combined with 0.2 ml internal standard (7-(4-amino-2-methyl-1-pyrrolidinyl)-1-(2,4-difluorophenyl)-6-fluoro-1,4-d ihydro-4-oxo-1,8-naphthyridine-3-carboxylic acid in 0.2M sodium phosphate pH 7.2 buffer) and 6 mls CH2 Cl2 :EtoH (9:1 by volume). Samples are capped and shaken gently for 10 minutes. Samples are centrifuges at 2500 rpm for 10 minutes (4° C.). The aqueous layer is aspirated to waste and the organic layer is transferred to a conical centrifuge tube and evaporated to dryness with a stream of dry air and low heat ([…]). Samples are reconstituted with 0.2 ml mobile phase followed by vortexing. Samples are centrifuges at 2500 rpm for 10 minutes to separate precipitate. The supernatant is transferred to a WISP vial with plastic insert for HPLC analysis.

Stap. Aureus CMX 553 = test: Second in vitro MIC test, Brain Heart Infusion Broth (BHIB); format: cell-based
Ps. Aeruginosa A5007 = test: as above; format: cell-based
E. Coli Juhl [3] = test: Acute mouse protection test; format: in vivo; conditions: mice infected i.p. with E. Coli JUHL, observed 7 days; for SC (ED50): SC dosing at 1 and 5 hours post-infection; for Oral (ED50): oral dosing at 1 and 5 hours post-infection
[4] = tested on: MICROCOCCUS LUTEUS ATCC 9341; test: In vitro MIC, agar dilution (BHIA); format: cell-based
[5] = tested on: PSEUDOMONAS AERUGINOSA K799/WT; test: In vitro MIC, agar dilution (BHIA); format: cell-based
[6] = tested on: PSEUDOMONAS AERUGINOSA A5007; test: In vitro MIC, agar dilution (BHIA); format: cell-based
PSEUDOMONAS CEPACIA 296I = test: In vitro MIC, agar dilution (BHIA); format: cell-based
[7] = tested on: PROVIDENCIA STUARTII CMX 640; test: In vitro MIC, agar dilution (BHIA); format: cell-based; conditions: read-out: MIC
[8] = tested on: MICROCOCCUS LUTEUS ATCC 4698; test: In vitro MIC, agar dilution (BHIA); format: cell-based
[9] = Conversion of prodrug to parent drug in whole blood at 37° C.; format: in vitro ADME, Human
Experimental: as §1

[10] = tested on: STREPTOCOCCUS PYOGENES 2548 INDUC; test: In vitro MIC, agar dilution (BHIA); format: cell-based
[11] = Conversion of prodrug to parent drug in whole blood at 37° C.; format: in vitro ADME, Rat
Experimental: as §1

ESCHERICHIA COLI H560 = test: In vitro MIC, agar dilution (BHIA); format: cell-based
Excerpt: The MIC results are in ug/ml.

[12] = tested on: STREPTOCOCCUS BOVIS A5169; test: In vitro MIC, agar dilution (BHIA); format: cell-based; conditions: STREPTOCOCCUS BOVIS A5169
[13] = tested on: KLEBSIELLA PNEUMONIAE ATCC 8045; test: In vitro MIC, agar dilution (BHIA); format: cell-based
[14] = tested on: ENTEROCOCCUS FAECIUM ATCC 8043; test: In vitro MIC, agar dilution (BHIA); format: cell-based
[15] = tested on: STREPTOCOCCUS AGALACTIAE CMX 508; test: In vitro MIC, agar dilution (BHIA); format: cell-based; conditions: STREPTOCOCCUS AGALACTIAE CMX 508
[16] = tested on: PSEUDOMONAS AERUGINOSA K799/61; test: In vitro MIC, agar dilution (BHIA); format: cell-based
[17] = tested on: STREPTOCOCCUS PYOGENES 930 CONST; test: In vitro MIC, agar dilution (BHIA); format: cell-based
[18] = tested on: PSEUDOMONAS AERUGINOSA BMH10; test: In vitro MIC, agar dilution (BHIA); format: cell-based
ESCHERICHIA COLI JUHL = test: In vitro MIC, agar dilution (BHIA); format: cell-based
[19] = tested on: STREPTOCOCCUS PYOGENES EES61; test: In vitro MIC, agar dilution (BHIA); format: cell-based; conditions: STREPTOCOCCUS PYOGENES EES61

Molecule | SC (ED50) (P. Aeruginosa A5007) [mg/kg/day] | Oral (ED50) (P. Aeruginosa A5007) [mg/kg/day] | SC (ED50) (Stap. Aureus NCTC 10649) [mg/kg/day] | Oral (ED50) (Stap. Aureus NCTC 10649) [mg/kg/day] | MIC (Strep. pyogenes EES 61) [µg/mL] | MIC (E. Coli Juhl [1]) [µg/mL] | Half Life Dog [2] | MIC (Stap. Aureus CMX 553) [µg/mL] | MIC (Ps. Aeruginosa A5007) [µg/mL] | Solubility pH 7.4 [mg/ml] | SC (ED50) (E. Coli Juhl [3]) [mg/kg/day] | Oral (ED50) (E. Coli Juhl [3]) [mg/kg/day] | further results
O=C(O)c1cn(-c2ccc(F)cc2F)c2nc(N3CCC(NC(=O)C4CCCN4)C3)c(F)cc2c1=O (stereo not shown) [Example 28] | 3.1 | 51.3 | 0.5 | 3.2 | 1.56 (≈ 3.11 µM) | 1.56 (≈ 3.11 µM) | 41 m | 1.56 (≈ 3.11 µM) | 12.5 (≈ 24.9 µM) |  |  |  | 
CC(C)CC(N)C(=O)NC1CCN(c2nc3c(cc2F)c(=O)c(C(=O)O)cn3-c2ccc(F)cc2F)C1 (stereo not shown) [Example 21] | 3.9 | 12.5 | 0.5 | 2.4 | 6.2 (≈ 12 µM) | 1.56 (≈ 3.01 µM) | 55.8 s | 1.56 (≈ 3.01 µM) | 25 (≈ 48.3 µM) | 0.14 |  |  | 
CC(N)C(=O)NC1CCN(c2nc3c(cc2F)c(=O)c(C(=O)O)cn3-c2ccc(F)cc2F)C1 (stereo not shown) [Example 17] | 5.7 | 12.5 | 0.7 | 1.7 |  | 0.5 (≈ 1.05 µM) | 97.0 s | 2.0 (≈ 4.21 µM) | 16 (≈ 33.7 µM) | 0.12 | 0.4 | 2.0 | 
NCC(=O)NC1CCN(c2nc3c(cc2F)c(=O)c(C(=O)O)cn3-c2ccc(F)cc2F)C1 (stereo not shown) [Example 7] | 4.2 | 11.4 | 0.9 | 2.4 | 0.78 (≈ 1.69 µM) | 0.78 (≈ 1.69 µM) |  | 1.56 (≈ 3.38 µM) | 12.5 (≈ 27.1 µM) |  | 0.3 | 5.0 | 
CSCCC(N)C(=O)NC1CCN(c2nc3c(cc2F)c(=O)c(C(=O)O)cn3-c2ccc(F)cc2F)C1 (stereo not shown) [Example 23] | 3.1 | 11.5 | 0.5 | 1.5 | 3.12 (≈ 5.83 µM) | 3.12 (≈ 5.83 µM) | 99.1 s | 3.12 (≈ 5.83 µM) | 5.0 (≈ 9.34 µM) |  |  |  | 
CCC[C@H](NC(=O)CNC(=O)CN)C(=O)NC1CCN(c2nc3c(cc2F)c(=O)c(C(=O)O)cn3-c2ccc(F)cc2F)C1 (stereo partly shown) [Example 30] | 4.8 | 3.3 | 0.7 | 2.2 | 100 (≈ 162 µM) | 25 (≈ 40.5 µM) |  | 25 (≈ 40.5 µM) | > 100 |  |  |  | 
NC1CCN(c2nc3c(cc2F)c(=O)c(C(=O)O)cn3-c2ccc(F)cc2F)C1 (stereo not shown) [tosufloxacin, 7-(3-amino-1-pyrrolidinyl)-6-fluoro,1-(2,4-difluorophenyl)-1,4-dihydro-4-o xo-1,8-naphthyridine 3-carboxylic acid, reference compound] | > 25 | 6.2 | 0.6 | 1.5 |  |  |  |  |  |  | 0.2 | 0.9 | MIC ([4]; ATCC9341, read-out: MIC): 1.56 µg/mL (≈ 3.86 µM); MIC ([5]; read-out: MIC): 0.78 µg/mL (≈ 1.93 µM); MIC ([6]; read-out: MIC): 0.78 µg/mL (≈ 1.93 µM); MIC (PSEUDOMONAS CEPACIA 296I; Burkholderia cepacia, read-out: MIC): 3.1 µg/mL (≈ 7.67 µM); MIC [7]: 1.56 µg/mL (≈ 3.86 µM); MIC ([8]; ATCC4698, read-out: MIC): 0.78 µg/mL (≈ 1.93 µM)
NC(Cc1ccc(O)cc1)C(=O)NC1CCN(c2nc3c(cc2F)c(=O)c(C(=O)O)cn3-c2ccc(F)cc2F)C1 (stereo not shown) [Example 13] | 9.1 | 15.1 | 0.4 | 1.7 | 12.5 (≈ 22 µM) | 12.5 (≈ 22 µM) |  | 12.5 (≈ 22 µM) | 50 (≈ 88.1 µM) | 0.06 |  |  | 
7-[3-Norvaline-amino-1-pyrrolidinyl]-1-(2,4-difluorophenyl)-6-fluoro-1,4-di hydro-4-oxo-1,8-naphthyridine-3-carboxylic acid hydrochloride [Example 2b] |  |  |  |  |  |  |  |  |  |  |  |  | MIC [4]: 25 µg/mL; MIC [5]: 6.2 µg/mL; Half Life Human [9]: 75.5 s; MIC [10]: .39 µg/mL; MIC [6]: 12.5 µg/mL; Half Life Rat [11]: 0.678 min; MIC (PSEUDOMONAS CEPACIA 296I): 50 µg/mL; MIC (ESCHERICHIA COLI H560): .78 µg/mL; MIC [12]: 1.56 µg/mL; MIC [13]: .39 µg/mL; MIC [8]: 25 µg/mL; MIC [14]: .78 µg/mL; MIC [15]: 1.56 µg/mL; MIC [16]: .39 µg/mL; MIC [17]: .78 µg/mL; MIC [18]: 6.2 µg/mL; MIC (ESCHERICHIA COLI JUHL): .78 µg/mL; MIC [19]: 1.56 µg/mL
CCC[C@H](NC(=O)[C@@H](N)CCC)C(=O)NC1CCN(c2nc3c(cc2F)c(=O)c(C(=O)O)cn3-c2ccc(F)cc2F)C1 (stereo partly drawn) [Example 3b, 7-(3-L-Norvaline-L-Norvalineamino-1-pyrrolidinyl)-1-(2,4-difluorophenyl)-6-fluoro-1,4-dihydro-4-oxo-1,8-naphthyridine-3-carboxylic acid hydrochloride] | 6.2 | 9.1 | 0.5 | 1.8 | 12.5 |  |  |  |  |  | 0.5 | 4.0 | Half Life Human ([9]; conversion to parent drug in human whole blood at 37° C., minutes): 2.1 m; Half Life Rat ([11]; conversion to parent drug in rat whole blood at 37° C., seconds): 0.858 min; Half Life Dog ([2]; conversion to parent drug in dog whole blood at 37° C., seconds): 86.5 s
